{"source": "patent US11530415B2", "about": "“Genetically engineered Streptomyces capable of thaxtomin production in the absence of thaxtomin-inducing conditions and methods of producing thaxtomin” (University of Florida Research Foundation, Inc., priority 2017, dated 2022)", "origin": "cited, not measured here", "tested_on": "cellulose biosynthesis", "details": "background statement, no method given"}
{"smiles": "CN1C(=O)[C@](O)(Cc2cccc(O)c2)N(C)C(=O)[C@@H]1Cc1c[nH]c2cccc([N+](=O)[O-])c12", "note": "[Thaxtomin A, thaxtomin A]", "values": [{"measurement": "potency in inhibiting cellulose biosynthesis", "result": "excellent potency (in an nM range)"}]}
